Assay results: patent US12344600B2, “c-Myc mRNA translation modulators and uses thereof in the treatment of cancer” (Anima Biotech Inc., priority 2022, dated 2025)

System: c-Myc
Test: c-Myc immunofluorescence assay
Assay type: cell-based, human
Settings: A549 cells, 24 hours, anti-c-Myc immunofluorescence
Procedure: A549 human non-small cell lung carcinoma cells were treated for 24 hours with increasing compound concentration, cells were fixed and stained with a nuclei stain (DAPI) and anti-c-Myc fluorescent antibody. The c-Myc signal was quantified by image analysis, and data was exported and analyzed using TIBCO Spotfire® (TIBCO Corporation). Dose response curves were generated and fitted with logaristic regression to calculate potency (EC50 values). Potency values are presented in Table 2 for all compounds and are shown for selected compounds (FIG. 3).
A549 cells were grown in 384-wells plates (Perkin Elmer, Cat. 6057300) for 48 hours, treated with compounds and then fixed for 20 min in 4% paraformaldehyde. After that permeabilization was done using 0.1% Triton X-100 in PBS for 20 min. Primary anti-c-Myc antibody (Abcam, ab32072) staining was performed for 90 min at room temperature. Cells then were washed twice with PBS and incubated with secondary antibody (Abcam, ab150075) for 90 min at room temperature. Nuclei were stained with DAPI for 10 min and washed twice with PBS.
Cell images were taken with Operetta (Perkin Elmer, USA), a wide-field fluorescence microscope at 20× magnification. After acquisition, the images were transferred to Columbus software (Perkin-Elmer) for image analysis. In Columbus, cells were identified by their nucleus, using the “Find Nuceli” module and cytoplasm was detected based on the secondary antibody channel. Subsequently, the fluorescent signal was enumerated in the identified cell region. Then data was exported to a data analysis and visualization software, Tibco Spotfire, USA.

SMILES | Myc Efficacy (−LogEC50)
COc1ccc(-c2noc(N3CCC(C(=O)N4CCC(OC)CC4)CC3)n2)cc1 [Compound 134, (1-(3-(4-methoxyphenyl)-1,2,4-oxadiazol-5-yl)piperidin-4-yl)(4-methoxypiperidin-1-yl)methanone] | + (+ >3 and <5)
COc1ccc(-c2noc(N3CCC(Oc4ccccc4)CC3)n2)cc1 [Compound 135, 3-(4-methoxyphenyl)-5-(4-phenoxypiperidin-1-yl)-1,2,4-oxadiazole] | − (− ≤3)
COc1ccc(-c2noc(N3CCC(c4ccccc4)CC3)n2)cc1 [Compound 136, 3-(4-methoxyphenyl)-5-(4-phenylpiperidin-1-yl)-1,2,4-oxadiazole] | − (− ≤3)
CNC(=O)C1CCN(c2nc(-c3ccc(OC)cc3)no2)CC1 [Compound 137, 1-(3-(4-methoxyphenyl)-1,2,4-oxadiazol-5-yl)-N-methylpiperidine-4-carboxamide] | + (+ >3 and <5)
COc1ccc(-c2noc(N3CCNCC3)n2)cc1 [Compound 138, 3-(4-methoxyphenyl)-5-(piperazin-1-yl)-1,2,4-oxadiazole] | + (+ >3 and <5)
COc1ccc(-c2noc(N3CCC(C(=O)N4CCOCC4)CC3)n2)cc1 [Compound 139, (1-(3-(4-methoxyphenyl)-1,2,4-oxadiazol-5-yl)piperidin-4-yl)(morpholino)methanone] | + (+ >3 and <5)
COc1ccc(-c2noc(N3CCC(C(=O)NCCCN4CCC(C)CC4)CC3)n2)cc1 [Compound 140, 1-(3-(4-methoxyphenyl)-1,2,4-oxadiazol-5-yl)-N-(3-(4-methylpiperidin-1-yl)propyl)piperidine-4-carboxamide] | + (+ >3 and <5)
COc1ccc(-c2noc(N3CCC(C(=O)NCCCN4CCC[C@H](C)C4)CC3)n2)cc1 [Compound 141, (S)-1-(3-(4-methoxyphenyl)-1,2,4-oxadiazol-5-yl)-N-(3-(3-methylpiperidin-1-yl)propyl)piperidine-4-carboxamide] | − (− ≤3)
COc1ccc(-c2noc(N3CCC(C(=O)NCCCN4CCC[C@@H](C)C4)CC3)n2)cc1 [Compound 142, (R)-1-(3-(4-methoxyphenyl)-1,2,4-oxadiazol-5-yl)-N-(3-(3-methylpiperidin-1-yl)propyl)piperidine-4-carboxamide] | + (+ >3 and <5)
COc1ccc(-c2noc(N3CCC(C(=O)Nc4ccccc4)CC3)n2)cc1 [Compound 143, 1-(3-(4-methoxyphenyl)-1,2,4-oxadiazol-5-yl)-N-phenylpiperidine-4-carboxamide] | ++ (++ ≥5 and <6)
COc1ccc(-c2noc(N3CCN(C(=O)N4CCOCC4)CC3)n2)cc1 [Compound 144, (4-(3-(4-methoxyphenyl)-1,2,4-oxadiazol-5-yl)piperazin-1-yl)(morpholino)methanone] | + (+ >3 and <5)
COc1ccc(-c2noc(N3CCN(C(=O)N4CCC(C)CC4)CC3)n2)cc1 [Compound 145, (4-(3-(4-methoxyphenyl)-1,2,4-oxadiazol-5-yl)piperazin-1-yl)(4-methylpiperidin-1-yl)methanone] | + (+ >3 and <5)
COc1ccc(-c2noc(N3CCN(C(=O)N4CCS(=O)(=O)CC4)CC3)n2)cc1 [Compound 146, (1,1-dioxidothiomorpholino)(4-(3-(4-methoxyphenyl)-1,2,4-oxadiazol-5-yl)piperazin-1-yl)methanone] | + (+ >3 and <5)
COc1ccc(-c2noc(N3CCN(C(C)=O)CC3)n2)cc1 [Compound 147, 1-(4-(3-(4-methoxyphenyl)-1,2,4-oxadiazol-5-yl)piperazin-1-yl)ethan-1-one] | + (+ >3 and <5)
COc1ccc(-c2noc(N3CCN(C(=O)C4CCOCC4)CC3)n2)cc1 [Compound 148, (4-(3-(4-methoxyphenyl)-1,2,4-oxadiazol-5-yl)piperazin-1-yl)(tetrahydro-2H-pyran-4-yl)methanone] | + (+ >3 and <5)
COc1ccc(-c2noc(CCC(=O)NC[C@H]3CCN(Cc4ccc(C)cc4)C3)n2)cc1 [Compound 149, (R)-3-(3-(4-methoxyphenyl)-1,2,4-oxadiazol-5-yl)-N-((1-(4-methylbenzyl)pyrrolidin-3-yl)methyl)propanamide] | ++ (++ ≥5 and <6)
COc1ccc(-c2noc(CCC(=O)NC[C@@H]3CCN(Cc4ccc(C)cc4)C3)n2)cc1 [Compound 150, (S)-3-(3-(4-methoxyphenyl)-1,2,4-oxadiazol-5-yl)-N-((1-(4-methylbenzyl)pyrrolidin-3-yl)methyl)propanamide] | ++ (++ ≥5 and <6)
COc1ccc(-c2noc(CCC(=O)NCCCN3CCC(Cc4ccccc4)CC3)n2)cc1 [Compound 151, N-(3-(4-benzylpiperidin-1-yl)propyl)-3-(3-(4-methoxyphenyl)-1,2,4-oxadiazol-5-yl)propanamide] | ++ (++ ≥5 and <6)
COc1ccc(-c2noc(N3CCC(C(=O)NCCCN4CCC(Cc5ccccc5)CC4)CC3)n2)cc1 [Compound 152, N-(3-(4-benzylpiperidin-1-yl)propyl)-1-(3-(4-methoxyphenyl)-1,2,4-oxadiazol-5-yl)piperidine-4-carboxamide] | +++ (+++ ≥6)
COc1ccc(-c2noc(C3CN(C(=O)N4CCC(C)CC4)C3)n2)cc1 [Compound 153, (3-(3-(4-methoxyphenyl)-1,2,4-oxadiazol-5-yl)azetidin-1-yl)(4-methylpiperidin-1-yl)methanone] | + (+ >3 and <5)
Cc1ccc(CN2CCC(CNC(=O)C3CCN(c4nc(-c5ccc(Cl)cc5)no4)CC3)C2)cc1 (stereo not shown) [Compound 154, 1-(3-(4-chlorophenyl)-1,2,4-oxadiazol-5-yl)-N-((1-(4-methylbenzyl)pyrrolidin-3-yl)methyl)piperidine-4-carboxamide] | ++ (++ ≥5 and <6)
Cc1ccc(CN2CCC(CNC(=O)C3CCN(c4nc(-c5cccc(Cl)c5)no4)CC3)C2)cc1 (stereo not shown) [Compound 155, 1-(3-(3-chlorophenyl)-1,2,4-oxadiazol-5-yl)-N-((1-(4-methylbenzyl)pyrrolidin-3-yl)methyl)piperidine-4-carboxamide] | ++ (++ ≥5 and <6)
Cc1ccc(CN2CCC(CNC(=O)C3CCN(c4nc(-c5ccccc5Cl)no4)CC3)C2)cc1 (stereo not shown) [Compound 156, 1-(3-(2-chlorophenyl)-1,2,4-oxadiazol-5-yl)-N-((1-(4-methylbenzyl)pyrrolidin-3-yl)methyl)piperidine-4-carboxamide] | + (+ >3 and <5)
COc1ccc(-c2cccc(N3CCC(C(=O)NCC4CCN(Cc5ccc(C)cc5)C4)CC3)n2)cc1 (stereo not shown) [Compound 157, 1-(6-(4-methoxyphenyl)pyridin-2-yl)-N-((1-(4-methylbenzyl)pyrrolidin-3-yl)methyl)piperidine-4-carboxamide] | ++ (++ ≥5 and <6)
Cc1ccc(CN2CCC(CNC(=O)C3CCN(c4nc(-c5ccc(C#N)cc5)no4)CC3)C2)cc1 (stereo not shown) [Compound 158, 1-(3-(4-cyanophenyl)-1,2,4-oxadiazol-5-yl)-N-((1-(4-methylbenzyl)pyrrolidin-3-yl)methyl)piperidine-4-carboxamide] | ++ (++ ≥5 and <6)
